Assay results published in patent US20240116985A1, “STAPLED PEPTIDES AND METHODS THEREOF” (priority 2020, published 2024).
pIC50: −log10 of the molar value. In brackets after ≈: the same amount, converted by molar mass. Several values for one entry are separate records, joined by “and”; a condition that tells them apart may be missing. Equal entries are not always repeated. Where two headings read alike, the source gives them in different places.

Key:
[1] = target: T1, beta-catenin/TCF4 engagement (Homo sapiens, UniProt P35222); assay: Nano-BRET target engagement assay (B-cat-Halo & TCF4-Luc in HEK293 cells); format: cell-based; conditions: for inhibition at 10 µM: HEK293, 10 uM
T1 construct: expressed in transfected cells; host or cells: HEK293
T1 sequence (P35222 1-781): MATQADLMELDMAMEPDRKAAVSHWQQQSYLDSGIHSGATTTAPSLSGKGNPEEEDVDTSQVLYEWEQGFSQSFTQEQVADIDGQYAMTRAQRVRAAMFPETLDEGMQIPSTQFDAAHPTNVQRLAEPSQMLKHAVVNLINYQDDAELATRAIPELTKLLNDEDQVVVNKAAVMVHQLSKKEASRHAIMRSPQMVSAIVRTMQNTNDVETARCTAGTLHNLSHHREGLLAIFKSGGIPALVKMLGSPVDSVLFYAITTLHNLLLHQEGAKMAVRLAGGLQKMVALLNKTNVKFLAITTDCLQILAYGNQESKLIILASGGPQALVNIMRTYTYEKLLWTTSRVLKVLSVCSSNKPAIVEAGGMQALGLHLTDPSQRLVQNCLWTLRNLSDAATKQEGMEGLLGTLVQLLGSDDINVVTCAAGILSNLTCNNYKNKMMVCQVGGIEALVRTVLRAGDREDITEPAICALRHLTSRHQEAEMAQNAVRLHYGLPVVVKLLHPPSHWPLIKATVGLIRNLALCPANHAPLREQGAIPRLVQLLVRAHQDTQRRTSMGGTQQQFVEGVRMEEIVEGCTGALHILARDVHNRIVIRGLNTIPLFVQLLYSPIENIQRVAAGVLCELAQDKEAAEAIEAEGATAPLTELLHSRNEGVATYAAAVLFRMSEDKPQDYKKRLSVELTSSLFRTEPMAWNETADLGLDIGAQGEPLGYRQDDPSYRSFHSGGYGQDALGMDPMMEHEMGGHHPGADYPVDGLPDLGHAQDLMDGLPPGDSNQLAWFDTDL

[2] = tested on: TCF/LEF luciferase Reporter in DLD1 cells; assay: TCF reporter assay (DLD1 TCF/LEF luciferase reporter, Bright-Glo); format: cell-based; conditions: read-out: DLD1 4% Abs IC50; DLD1 4%
Summary of the method: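 Readouts: Bright-Glo luciferase for reporter signal and CellTiter-Glo for cell viability, with absolute IC50 derived. The reporter clone came from lentiviral TCF/LEF-luciferase transduction of DLD1 cells, seeded 5000 cells/well in RPMI with 4% FBS and exposed overnight to serially diluted compounds.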

Solubility in PBS = format: physicochemical; conditions: Solubility (uM)
Summary of the method: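 Steps: ultracentrifuge the peptide PBS solution, inject the supernatant on HPLC, inject a 50 μM peptide DMSO solution as reference, then calculate solubility as area ratio (PBS/DMSO) × 50 uM.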

CHI Log D procedure = format: physicochemical; conditions: pH 7.4, CHI Log D
[3] = plate row B = 20 uM, integration 0.3 s, reading 1

BRET % Inhibition ([1]; 0.625 uM, replicates): −32.1% and −5.3% and 6.3%
BRET % Inhibition ([1]; 1.25 uM, replicates): −6.1% and −18.2% and −25.1%
BRET % Inhibition ([1]; 2.5 uM, replicates): −23.7% and 8.1% and −9.2%
BRET % Inhibition ([1]; 5 uM, replicates): 6.8% and −15.3% and 30.1%
BRET % Inhibition ([1]; 10 uM, replicates): 24.5% and 21.5%
BRET % Inhibition ([1]; 20 uM, replicates): 52.9% and 40.7% and 71.4%
inhibition at 10 µM ([1]; read-out: NanoBRET % inh @ 10 uM): 53%
inhibition at 10 µM ([1]; replicates, read-out: BRET % Inhibition): 35.7%
BRET Acceptor 600 LP raw reading [1, 3]: 450 and 280
BRET Donor 450 BP raw reading [1, 3]: 59340 and 52650 and 45840
BRET Acceptor 600 LP raw reading ([1]; plate row C = 10 uM): 490 and 470
BRET Donor 450 BP raw reading ([1]; plate row C = 10 uM): 54740 and 47760 and 46640
BRET Acceptor 600 LP raw reading ([1]; plate row D = 5 uM): 630 and 600 and 430
BRET Donor 450 BP raw reading ([1]; plate row D = 5 uM): 56000 and 46130 and 45780
BRET Donor 450 BP raw reading ([1]; plate row E = 2.5 uM): 54130 and 32300 and 33550
BRET Acceptor 600 LP raw reading ([1]; plate row F = 1.25 uM (plate map)): 470 and 380 and 260
pIC50 ([1]; read-out: NanoBRET Abs IC50): 5.20
pIC50 ([1]; read-out: NanoBRET IC50): 5.11
pIC50 [2]: 5.14
Solubility (Solubility in PBS): 46 µM (≈ 91.5 µg/mL)
chromatographic logD (CHI Log D procedure): 2.03
Compound: CC(=O)N1CCC[C@]12CC=CCCCC1(CCCC=CCCCOC(=O)N3CC[C@@](C(=O)N[C@@H](Cc4ccsc4)C(=O)N[C@@H](Cc4csc5ccccc45)C(=O)N[C@@H](CCC(N)=O)C(=O)N[C@H](C)C(N)=O)(C3)NC(=O)[C@H](CC(N)=O)NC(=O)[C@H](Cc3ccccc3)NC(=O)[C@H](C)NC(=O)[C@H](C)NC(=O)[C@H](CC(=O)O)NC(=O)[C@H](CC(=O)O)NC1=O)NC(=O)[C@H](CC(C)(C)C)NC(=O)[C@H](CC(=O)O)NC2=O (stereo partly drawn) [I-822, Ac-PL3-Asp-Npg-B5-Asp-Asp-Ala-Ala-Phe-Asn-PyrS2-3Thi-BztA-Gln-dAla-NH2]
